Drawing on ChEMBL document CHEMBL3872274, “Synthesis and immunological evaluation of a low molecular weight saccharide with TLR-4 agonist activity” (Bioorg Med Chem, 2017), this text covers Activity for 3 compounds.

The target of data set [1] is T1, Toll-like receptor 4 (Mus musculus) (UniProt Q9QUK6).
T1 sequence (whole entry): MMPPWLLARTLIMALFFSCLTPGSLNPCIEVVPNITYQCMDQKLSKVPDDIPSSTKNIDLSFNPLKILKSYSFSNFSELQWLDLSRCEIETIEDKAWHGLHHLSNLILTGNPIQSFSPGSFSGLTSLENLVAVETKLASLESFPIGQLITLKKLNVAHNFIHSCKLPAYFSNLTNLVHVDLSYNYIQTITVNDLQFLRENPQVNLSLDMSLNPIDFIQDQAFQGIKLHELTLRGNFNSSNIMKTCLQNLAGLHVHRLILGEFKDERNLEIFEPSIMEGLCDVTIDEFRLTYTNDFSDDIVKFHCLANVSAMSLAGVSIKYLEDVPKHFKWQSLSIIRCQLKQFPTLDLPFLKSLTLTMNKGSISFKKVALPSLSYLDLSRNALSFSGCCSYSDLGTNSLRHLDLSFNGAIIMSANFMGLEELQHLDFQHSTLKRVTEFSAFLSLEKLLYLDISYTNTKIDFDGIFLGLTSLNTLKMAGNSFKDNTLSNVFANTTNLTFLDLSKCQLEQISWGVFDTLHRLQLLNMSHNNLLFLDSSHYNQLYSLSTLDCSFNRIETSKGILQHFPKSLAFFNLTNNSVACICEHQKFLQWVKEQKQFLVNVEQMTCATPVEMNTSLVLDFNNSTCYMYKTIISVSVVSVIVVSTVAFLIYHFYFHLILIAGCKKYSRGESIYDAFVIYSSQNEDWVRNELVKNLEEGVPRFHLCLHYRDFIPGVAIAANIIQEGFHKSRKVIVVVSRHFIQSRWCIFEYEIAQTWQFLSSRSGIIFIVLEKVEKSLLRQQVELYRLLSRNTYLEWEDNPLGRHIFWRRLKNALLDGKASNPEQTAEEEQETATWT
Put plainly: Agonist activity at TLR-4 in C57BL/6 mouse peritoneal exudate macrophages assessed as increase in IL-6 production at 1 to 5 ug/ml at 24 hrs post dose by ELISA relative to (Cyclohexyl-2-phthalimido-3,4,6-tri-O-acetyl-beta-D-glucopyranosyl)-2-O-acetyl-3-O-benzoyl-4,6-O-pyruvate-beta-D-galactopyranose.

Data set [2] addresses T1, Toll-like receptor 4 (Mus musculus). Put plainly: Agonist activity at TLR-4 in C57BL/6 mouse peritoneal exudate macrophages assessed as increase in IL-6 production at 1 to 5 ug/ml measured after 48 hrs by ELISA. In general terms: In an ELISA, binding on a coated surface is turned into a signal by an enzyme label.
For data set [3] the target is unchanged. In words: Binding affinity to TLR-4 in C57BL/6 mouse peritoneal exudate macrophages assessed as cells binding to PE conjugated anti-TLR-4 monoclonal antibody at 1 ug/ml preincubated for 4 hrs followed by antibody addition by flow cytometry (reference value: 50.8%). Background: Flow cytometry measures light scatter and fluorescence of single cells or particles in a stream.

The target is the same in data set [4]. Put plainly: Agonist activity at TLR-4 in C57BL/6 mouse peritoneal exudate macrophages assessed as increase in TNF-alpha production at 1 to 5 ug/ml measured within 2 hrs by ELISA.
Data set [5] in a line: Effect on adaptive immune system in mouse splenocytes assessed as polyclonal activation of B-lymphocytes. The data set is classed as cell-based. To be noted: splenocyte.
The target of data set [6] is T1, Toll-like receptor 4 (Mus musculus). In words: Agonist activity at TLR-4 in TLR2 deficient C57BL/6 mouse peritoneal exudate macrophages assessed as increase in TNF-alpha production at 1 to 5 ug/ml measured after 2 to 24 hrs by ELISA.
Data set [7] shares this target. In words: Agonist activity at TLR-4 in mouse RAW264.7 cells assessed as increase in TNF-alpha production at 1 to 5 ug/ml measured within 2 hrs by ELISA. The data set is classed as cell-based.
Data set [8] has the same target. Put plainly: Agonist activity at TLR4 in TLR-2 deficient C57BL/6 mouse peritoneal exudate macrophages assessed as induction of IL-6 production at 1 to 5 ug/ml measured after up to 48 hrs by ELISA.
For data set [9] the target is unchanged. In words: Binding affinity to TLR-4 in C57BL/6 mouse peritoneal exudate macrophages assessed as cells binding to PE conjugated anti-TLR-4 monoclonal antibody at 10 ug/ml preincubated for 4 hrs followed by antibody addition by flow cytometry (reference value: 50.8%).
A short description of data set [10]: Effect on adaptive immune system in mouse splenocytes assessed as polyclonal activation of T-lymphocytes. The data set is classed as cell-based. The note with it: splenocyte.
Data set [11] deals with T1, Toll-like receptor 4 (Mus musculus). Put plainly: Agonist activity at TLR-4 in C57BL/6 mouse peritoneal exudate macrophages assessed as increase in TNF-alpha production at 1 to 5 ug/ml up to 24 hrs post dose by ELISA relative to thiophenyl-2-O-acetyl-3-O-benzoyl-4,6-O-pyruvate-[…]-D-galactopyranose.
Data set [12] has the same target. In words: Binding affinity to TLR-4 in C57BL/6 mouse peritoneal exudate macrophages assessed as decrease in cells binding to PE conjugated anti-TLR-4 monoclonal antibody preincubated for 4 hrs followed by antibody addition by flow cytometry.
Data set [13] shares this target. In words: Binding affinity to TLR-4 in C57BL/6 mouse peritoneal exudate macrophages assessed as cells binding to PE conjugated anti-TLR-4 monoclonal antibody at 5 ug/ml preincubated for 4 hrs followed by antibody addition by flow cytometry (reference value: 50.8%).
The target is the same in data set [14]. In words: Agonist activity at TLR-4 in mouse RAW264.7 cells assessed as increase in IL-6 production at 1 to 5 ug/ml measured after 48 hrs by ELISA. The data set is classed as cell-based.
Data set [15] addresses Toll-like receptor 2 (Mus musculus) (UniProt Q9QUN7). Put plainly: Binding affinity to TLR-2 in C57BL/6 mouse peritoneal exudate macrophages assessed as cells binding to PE conjugated anti-TLR-2 monoclonal antibody at 10 ug/ml preincubated for 4 hrs followed by antibody addition by flow cytometry (reference value: 30.8%).

Molecules are shown by their SMILES. Activity calls are given as the source filed them. No cut-off for these calls is given here.

Chain of Toll-like receptor 2 (Mus musculus) (Q9QUN7 whole entry): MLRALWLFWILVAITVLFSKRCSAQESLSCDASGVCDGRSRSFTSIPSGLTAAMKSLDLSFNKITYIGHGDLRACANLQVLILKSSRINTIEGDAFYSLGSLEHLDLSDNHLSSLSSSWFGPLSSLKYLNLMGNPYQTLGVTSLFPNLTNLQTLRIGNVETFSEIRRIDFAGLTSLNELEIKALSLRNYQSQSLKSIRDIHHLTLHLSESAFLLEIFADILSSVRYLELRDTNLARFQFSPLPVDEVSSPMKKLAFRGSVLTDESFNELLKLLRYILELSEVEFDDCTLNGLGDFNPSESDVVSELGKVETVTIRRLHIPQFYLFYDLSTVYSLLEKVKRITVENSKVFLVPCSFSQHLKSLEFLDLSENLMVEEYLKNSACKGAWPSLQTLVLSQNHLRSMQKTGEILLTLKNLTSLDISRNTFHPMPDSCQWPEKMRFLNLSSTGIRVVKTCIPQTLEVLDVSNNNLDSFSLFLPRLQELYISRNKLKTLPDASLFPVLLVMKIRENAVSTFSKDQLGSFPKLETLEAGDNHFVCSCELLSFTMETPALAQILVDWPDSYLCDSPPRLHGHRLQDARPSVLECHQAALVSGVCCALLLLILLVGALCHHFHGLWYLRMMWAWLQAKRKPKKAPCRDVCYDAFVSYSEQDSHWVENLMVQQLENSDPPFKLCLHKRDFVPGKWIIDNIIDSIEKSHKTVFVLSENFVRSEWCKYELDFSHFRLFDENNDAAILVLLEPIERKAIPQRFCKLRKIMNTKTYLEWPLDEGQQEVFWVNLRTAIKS

Turning to `CCS[C@@H]1O[C@H](COC(C)=O)[C@@H](OC(C)=O)[C@H](OC(C)=O)[C@H]1N1C(=O)c2ccccc2C1=O`, the Activity in data set [1] came to 50%.
Turning to `COC(=O)C1(C)OC[C@H]2O[C@@H](OC3CCC(O[C@@H]4O[C@H](COC(C)=O)[C@@H](OC(C)=O)[C@H](OC(C)=O)[C@H]4N4C(=O)c5ccccc5C4=O)CC3)[C@H](OC(C)=O)[C@@H](OC(=O)c3ccccc3)[C@H]2O1` (stereo partly specified), the outcome in [2], in data set [4], in data set [6], in data set [7], in data set [8] and in data set [14] was Active. Moreover, the Activity was 45.2% in data set [3]; “Non-Toxic” in data set [5]; 24.3% in data set [9]; “Non-Toxic” in data set [10]; 50% in data set [11]; “Dose-dependent effect” in [12]. In addition, the values for the Activity in data set [13] and in [15] were 37.3% and 33.4%, respectively.
In the case of `COC(=O)C1(C)OC[C@H]2O[C@@H](Sc3ccccc3)[C@H](OC(C)=O)[C@@H](OC(=O)c3ccccc3)[C@H]2O1` (stereo partly specified), in [1], the Activity was 50%.
